Source: ChEMBL document CHEMBL3885881, “DrugMatrix”

Species: Rattus norvegicus
Experiment: DrugMatrix - Regimen: Daily Repeat
Assay type: toxicity, organism-based, Sprague-Dawley
Design: regimen Daily Repeat, gender Male, age 6-8 weeks
Settings: in vivo, po, route oral GAVAGE, vehicle 100 % WATER; for ABSOLUTE BASOPHIL / ABSOLUTE EOSINOPHIL / ABSOLUTE LYMPHOCYTE / ABSOLUTE MONOCYTE / ABSOLUTE SEGMENTED NEUTROPHIL / BASOPHIL / EOSINOPHIL / ERYTHROCYTE COUNT / HEMATOCRIT / HEMOGLOBIN / LEUKOCYTE COUNT / LYMPHOCYTE / MEAN CORPUSCULAR HEMOGLOBIN / MEAN CORPUSCULAR HEMOGLOBIN CONCENTRATION / MEAN CORPUSCULAR VOLUME / MONOCYTE / NEUTROPHIL / NUCLEATED RED BLOOD CELLS / PLATELET COUNT: tissue Blood; for ALANINE AMINOTRANSFERASE / ALBUMIN / ALKALINE PHOSPHATASE / ASPARTATE AMINOTRANSFERASE / BLOOD UREA NITROGEN / CARBON DIOXIDE / CHLORIDE / CHOLESTEROL / CREATINE PHOSPHOKINASE / CREATININE / GLUCOSE / LACTATE DEHYDROGENASE / LIPASE / PHOSPHORUS / POTASSIUM / SODIUM / TOTAL BILIRUBIN / TOTAL PROTEIN / URIC ACID: tissue Plasma
[1] = 0 mg/kg, 72 h, dose level Control, time 3 day
[2] = 0 mg/kg, 120 h, dose level Control, time 5 day
[3] = 15 mg/kg, 72 h, dose level Low, time 3 day

NNC(=O)c1ccncc1 [ISONIAZID]
ABSOLUTE BASOPHIL [1]: 0 CELLS/uL
ABSOLUTE EOSINOPHIL [1]: 46 CELLS/uL
ABSOLUTE LYMPHOCYTE [1]: 10225.67 CELLS/uL
ABSOLUTE MONOCYTE [1]: 319.33 CELLS/uL
ABSOLUTE SEGMENTED NEUTROPHIL [1]: 1242.33 CELLS/uL
BASOPHIL [1]: 0%
EOSINOPHIL [1]: 0.33%
ERYTHROCYTE COUNT [1]: 5.17 x10E6/uL
HEMATOCRIT [1]: 33.43%
HEMOGLOBIN [1]: 12.55 G/DL
LEUKOCYTE COUNT [1]: 11.83 x10E3/uL
LYMPHOCYTE [1]: 86.5%
MEAN CORPUSCULAR HEMOGLOBIN [1]: 24.35 pg
MEAN CORPUSCULAR HEMOGLOBIN CONCENTRATION [1]: 37.57 G/DL
MEAN CORPUSCULAR VOLUME [1]: 64.8 fL
MONOCYTE [1]: 2.67%
NEUTROPHIL [1]: 10.5%
NUCLEATED RED BLOOD CELLS [1]: 0.17 /100WBC
PLATELET COUNT [1]: 1026.17 x10E3/uL
ALANINE AMINOTRANSFERASE [1]: 52.67 u/L
ALBUMIN [1]: 4.17 G/DL
ALKALINE PHOSPHATASE [1]: 331 u/L
ASPARTATE AMINOTRANSFERASE [1]: 92.33 u/L
BLOOD UREA NITROGEN [1]: 15.33 mg/dL
CARBON DIOXIDE [1]: 26.17 mmol/L
CHLORIDE [1]: 103.17 MEQ/L
CHOLESTEROL [1]: 73.67 mg/dL
CREATINE PHOSPHOKINASE [1]: 472.83 u/L
CREATININE [1]: 0.29 mg/dL
GLUCOSE [1]: 178.5 mg/dL
LACTATE DEHYDROGENASE [1]: 244.83 u/L
LIPASE [1]: 10.67 u/L
PHOSPHORUS [1]: 12.45 mg/dL
POTASSIUM [1]: 6.35 MEQ/L
SODIUM [1]: 144.27 MEQ/L
TOTAL BILIRUBIN [1]: 0.13 mg/dL
TOTAL PROTEIN [1]: 5.77 G/DL
URIC ACID [1]: 2.08 mg/dL
ABSOLUTE BASOPHIL [2]: 0 CELLS/uL
ABSOLUTE EOSINOPHIL [2]: 23.5 CELLS/uL
ABSOLUTE LYMPHOCYTE [2]: 12797.33 CELLS/uL
ABSOLUTE MONOCYTE [2]: 465.5 CELLS/uL
ABSOLUTE SEGMENTED NEUTROPHIL [2]: 1313.67 CELLS/uL
BASOPHIL [2]: 0%
EOSINOPHIL [2]: 0.17%
ERYTHROCYTE COUNT [2]: 5.76 x10E6/uL
HEMATOCRIT [2]: 36.72%
HEMOGLOBIN [2]: 13.72 G/DL
LEUKOCYTE COUNT [2]: 14.6 x10E3/uL
LYMPHOCYTE [2]: 87.5%
MEAN CORPUSCULAR HEMOGLOBIN [2]: 23.8 pg
MEAN CORPUSCULAR HEMOGLOBIN CONCENTRATION [2]: 37.35 G/DL
MEAN CORPUSCULAR VOLUME [2]: 63.72 fL
MONOCYTE [2]: 3.17%
NEUTROPHIL [2]: 9.17%
NUCLEATED RED BLOOD CELLS [2]: 0.33 /100WBC
PLATELET COUNT [2]: 1270.67 x10E3/uL
ALANINE AMINOTRANSFERASE [2]: 50.5 u/L
ALBUMIN [2]: 4.32 G/DL
ALKALINE PHOSPHATASE [2]: 339.67 u/L
ASPARTATE AMINOTRANSFERASE [2]: 88 u/L
BLOOD UREA NITROGEN [2]: 17 mg/dL
CARBON DIOXIDE [2]: 25 mmol/L
CHLORIDE [2]: 103.83 MEQ/L
CHOLESTEROL [2]: 71.33 mg/dL
CREATINE PHOSPHOKINASE [2]: 281.83 u/L
CREATININE [2]: 0.26 mg/dL
GLUCOSE [2]: 161.67 mg/dL
LACTATE DEHYDROGENASE [2]: 191.17 u/L
LIPASE [2]: 10.17 u/L
PHOSPHORUS [2]: 11.72 mg/dL
POTASSIUM [2]: 6.76 MEQ/L
SODIUM [2]: 145.17 MEQ/L
TOTAL BILIRUBIN [2]: 0.2 mg/dL
TOTAL PROTEIN [2]: 6.15 G/DL
URIC ACID [2]: 2 mg/dL
ABSOLUTE BASOPHIL [3]: 0 CELLS/uL
ABSOLUTE EOSINOPHIL [3]: 0 CELLS/uL
ABSOLUTE LYMPHOCYTE [3]: 12954 CELLS/uL
ABSOLUTE MONOCYTE [3]: 520 CELLS/uL
ABSOLUTE SEGMENTED NEUTROPHIL [3]: 1492.67 CELLS/uL
BASOPHIL [3]: 0%
EOSINOPHIL [3]: 0%
ERYTHROCYTE COUNT [3]: 5.66 x10E6/uL
HEMATOCRIT [3]: 34.97%
HEMOGLOBIN [3]: 13.17 G/DL
LEUKOCYTE COUNT [3]: 14.97 x10E3/uL
LYMPHOCYTE [3]: 86.33%
MEAN CORPUSCULAR HEMOGLOBIN [3]: 23.27 pg
MEAN CORPUSCULAR HEMOGLOBIN CONCENTRATION [3]: 37.67 G/DL
MEAN CORPUSCULAR VOLUME [3]: 61.73 fL
MONOCYTE [3]: 3.67%
NEUTROPHIL [3]: 10%
NUCLEATED RED BLOOD CELLS [3]: 0 /100WBC
PLATELET COUNT [3]: 1157.33 x10E3/uL
ALANINE AMINOTRANSFERASE [3]: 52.67 u/L
ALBUMIN [3]: 4.23 G/DL
ALKALINE PHOSPHATASE [3]: 369.67 u/L
ASPARTATE AMINOTRANSFERASE [3]: 95.67 u/L
BLOOD UREA NITROGEN [3]: 14.33 mg/dL
CARBON DIOXIDE [3]: 26 mmol/L
CHLORIDE [3]: 102.33 MEQ/L
CHOLESTEROL [3]: 93.67 mg/dL
CREATINE PHOSPHOKINASE [3]: 235.67 u/L
CREATININE [3]: 0.28 mg/dL
GLUCOSE [3]: 155 mg/dL
LACTATE DEHYDROGENASE [3]: 140.33 u/L
LIPASE [3]: 12 u/L
PHOSPHORUS [3]: 12.77 mg/dL
POTASSIUM [3]: 6.52 MEQ/L
SODIUM [3]: 144.23 MEQ/L
TOTAL BILIRUBIN [3]: 0.2 mg/dL
TOTAL PROTEIN [3]: 5.83 G/DL
URIC ACID [3]: 1.4 mg/dL
